# Results published in ChEMBL document CHEMBL3526031, “Mechanistic studies on the absorption and disposition of scutellarin in humans: selective OATP2B1-mediated hepatic uptake is a likely key determinant for its unique pharmacokinetic characteristics” (Drug Metab Dispos, 2012).
# Key:
# [1] = Ratio of Vmax to Km for drug metabolism in human intestinal microsomes assessed as formation of scutellarein-6-O-glucuronide after 7 mins by HPLC/UV analysis; format: ADME, Intestine, Microsome
# [2] = Ratio of Vmax to Km for drug metabolism in human intestinal microsomes assessed as formation of scutellarein-7-O-glucuronide after 7 mins by HPLC/UV analysis; format: ADME, Intestine, Microsome
# Liver microsome [3] = assay: Ratio of Vmax to Km for drug metabolism in rat liver microsomes assessed as formation of scutellarein-7-O-glucuronide after 7 mins by HPLC/UV analysis; format: ADME
# Liver microsome [4] = assay: Ratio of Vmax to Km for drug metabolism in human liver microsomes assessed as formation of scutellarein-7-O-glucuronide after 7 mins by HPLC/UV analysis; format: ADME
# [5] = Ratio of Vmax to Km for drug metabolism in rat intestinal microsomes assessed as formation of scutellarein-7-O-glucuronide after 7 mins by HPLC/UV analysis; format: ADME, Intestine, Microsome
# Liver microsome [6] = assay: Drug metabolism in human liver microsomes assessed as formation of scutellarein-6-O-glucuronide after 7 mins by HPLC/UV analysis; format: ADME
# [7] = Drug metabolism in human intestinal microsomes assessed as formation of scutellarein-7-O-glucuronide after 7 mins by HPLC/UV analysis; format: ADME, Intestine, Microsome
# Liver microsome [8] = assay: Ratio of Vmax to Km for drug metabolism in human liver microsomes assessed as formation of scutellarein-6-O-glucuronide after 7 mins by HPLC/UV analysis; format: ADME
# [9] = Drug metabolism in human intestinal microsomes assessed as formation of scutellarein-6-O-glucuronide after 7 mins by HPLC/UV analysis; format: ADME, Intestine, Microsome
# Liver microsome [10] = assay: Drug metabolism in human liver microsomes assessed as formation of scutellarein-7-O-glucuronide after 7 mins by HPLC/UV analysis; format: ADME
# Liver microsome [11] = assay: Ratio of Vmax to Km for drug metabolism in rat liver microsomes assessed as formation of scutellarein-6-O-glucuronide after 7 mins by HPLC/UV analysis; format: ADME
# [12] = biological target: T1, UDP-glucuronosyltransferase 1A1 (Homo sapiens, UniProt P22309); assay: Drug metabolism assessed as human recombinant UGT1A1-mediated formation of scutellarein-7-O-glucuronide after 25 mins by HPLC/UV analysis; format: ADME
# T1 sequence (P22309 whole entry): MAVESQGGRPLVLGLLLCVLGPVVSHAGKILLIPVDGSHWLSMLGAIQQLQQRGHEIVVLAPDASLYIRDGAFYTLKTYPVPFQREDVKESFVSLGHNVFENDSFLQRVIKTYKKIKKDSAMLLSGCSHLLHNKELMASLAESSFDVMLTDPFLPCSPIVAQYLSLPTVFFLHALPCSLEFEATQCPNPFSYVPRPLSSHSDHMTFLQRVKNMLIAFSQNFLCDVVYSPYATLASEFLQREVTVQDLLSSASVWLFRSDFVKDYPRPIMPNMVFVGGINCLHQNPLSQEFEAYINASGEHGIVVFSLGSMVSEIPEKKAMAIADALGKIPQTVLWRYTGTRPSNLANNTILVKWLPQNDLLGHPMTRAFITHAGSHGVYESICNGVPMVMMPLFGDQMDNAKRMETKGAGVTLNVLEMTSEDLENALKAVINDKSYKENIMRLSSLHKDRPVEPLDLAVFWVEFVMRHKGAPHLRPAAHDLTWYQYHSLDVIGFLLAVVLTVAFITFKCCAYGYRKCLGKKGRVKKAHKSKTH
# Liver microsome [13] = assay: Drug metabolism in rat liver microsomes assessed as formation of scutellarein-6-O-glucuronide after 7 mins by HPLC/UV analysis; format: ADME
# Liver microsome [14] = assay: Drug metabolism in rat liver microsomes assessed as formation of scutellarein-7-O-glucuronide after 7 mins by HPLC/UV analysis; format: ADME
# [15] = Drug metabolism in rat intestinal microsomes assessed as formation of scutellarein-7-O-glucuronide after 7 mins by HPLC/UV analysis; format: ADME, Intestine, Microsome
structure (smiles),measurement,setting,value
O=c1cc(-c2ccc(O)cc2)oc2cc(O)c(O)c(O)c12 [SCUTELLAREIN],Vmax/Km,[1],342 µL/min/mg
same,Vmax/Km,[2],924 µL/min/mg
same,Vmax/Km,Liver microsome [3],1361 µL/min/mg
same,Vmax/Km,Liver microsome [4],1368 µL/min/mg
same,Vmax/Km,[5],1924 µL/min/mg
same,Km,Liver microsome [6],16.2 µM
same,Vmax,Liver microsome [6],1.59 nmol/min/mg
same,Ki,[7],401 µM
same,Km,"[7]; human, microsomes, 7 min",5.9 µM
same,Vmax,"[7]; human, microsomes, 7 min",5.45 nmol/min/mg
same,Vmax/Km,Liver microsome [8],97.9 µL/min/mg
same,Km,[9],7.06 µM
same,Vmax,[9],2.41 nmol/min/mg
same,Km,Liver microsome [10],6.32 µM
same,Vmax,Liver microsome [10],8.64 nmol/min/mg
same,Vmax/Km,Liver microsome [11],577 µL/min/mg
same,Ki,[12],41.3 µM
same,Km,Liver microsome [13],2.86 µM
same,Vmax,Liver microsome [13],1.65 nmol/min/mg
same,Km,Liver microsome [14],7.37 µM
same,Vmax,Liver microsome [14],10 nmol/min/mg
same,Km,[15],9 µM
same,Vmax,[15],17.3 nmol/min/mg
